One series concerns MV4-11 cell. As to the kind of experiment: MV4-11 cell proliferation experiment (CCK-8 cell viability). It counts as cell-based. To be noted: Homo sapiens, MV4-11 cells, 72-hour culture. The procedure:
EXAMPLE 9 Cell Experiment (MV4-11 Cell Proliferation Experiment)
Determination of Cell Viability with CCK-8 Reagent
(1) MV4-11 cell suspension was pipetted from a culture flask into a 15 mL centrifuge tube, and the cell suspension was centrifuged at 1000 rpm for 4 minutes.
(2) A supernatant in the centrifuge tube was discarded, and an appropriate amount of fresh complete medium (IMDM+10% FBS+1% P/S) was added to resuspend the cells. 20 μL of cell suspension was collected, 20 μL of trypan blue was added, and CounterStar was used for counting.
(3) A required cell suspension volume and complete medium volume were calculated according to viable cell density and the required number of plated cells. MV4-11 cells were plated at a density of 1*10^4 cells/well in 100 μL/well.
(4) 100 μL of the above cell suspension was pipetted into a 96-well plate by using an electric pipette. 150 μL of complete medium was added to blank control wells. PBS was added to peripheral wells of the 96-well plate, to avoid liquid evaporation. The 96-well plate was cultured overnight in an incubator.
Day 2: Compound Preparation:
(1) The compound of the present application dissolved in DMSO and the positive control substance ABBV-744 were fetched, and subjected to serial dilution (dilution in column A, column B, . . . , column J sequentially from left to right in a 96-well PCR plate).
An initial concentration of the solution in column A is 10 mM;
Column B: 2 μL of the solution in column A was diluted with 8 μL of DMSO to obtain a final concentration of 2000 μM;
Column C: 2 μL of the solution in column B was diluted with 8 μL of DMSO to obtain a final concentration of 400 μM;
Column D: 2 μL of the solution in column C was diluted with 8 μL of DMSO to obtain a final concentration of 80 μM;
Column E: 2 μL of the solution in column D was diluted with 8 μL of DMSO to obtain a final concentration of 16 μM;
Column F: 2 μL of the solution in column E was diluted with 8 μL of DMSO to obtain a final concentration of 3.2 μM;
Column G: 2 μL of the solution in column F was diluted with 8 μL of DMSO to obtain a final concentration of 0.64 μM;
Column H: 2 μL of the solution in column G was diluted with 8 μL of DMSO to obtain a final concentration of 0.128 μM;
Column I: 2 μL of the solution in column H was diluted with 8 μL of DMSO to obtain a final concentration of 0.0256 μM; and
Column J: 2 μL of the solution in column I was diluted with 8 μL of DMSO to obtain a final concentration of 0.00512 μM.
The suspension was centrifuged for 1 minute at 1000 rpm by using a low-speed centrifuge.
(2) 3×Compound Preparation: (Diluted in a 96-Well Cell Culture Plate)
3 μL of each of the solutions in columns B to J was pipetted into […] of complete medium by a 10 μL manual pipette to obtain 3×compound solutions with a final concentration of 30000, 6000, 1200, 240, 48, 9.6, 1.92, 0.384 and 0.0768 nM, respectively; and 3 μL of DMSO was pipetted into […] of complete medium as a control. The resulting 96-well cell culture plate was put on an oscillator to be oscillated at 500 rpm for 30 minutes.
(1) The prepared 3×compound solutions with the above concentrations were each pipetted by a manual pipette with its volume set to 50 μL into a corresponding well of the 96-well plate after overnight culture on the first day, and the total culture volume of each well was 150 μL. The final concentrations of the compounds in the 96-well plate were 10 μM, 2 μM, 400 nM, 80 nM, 16 nM, 3.2 nM, 0.64 nM, 0.128 nM and 0.0256 nM, respectively. The resulting 96-well plate was put on an oscillator to be oscillated at 500 rpm for 10 minutes.
(2) The 96-well plate as prepared was put in a CO2 incubator for 72-hour culture.
(1) CCK-8 test solution was pipetted into the 96-well cell culture plate in an amount of 15 μL/well by a pipette with a volume set to 15 μL.
(2) The 96-well plate was put in the CO2 incubator for 4-hour culture. […]

The next series concerns MV4-11 xenograft tumor. As to the kind of experiment: In vivo efficacy test, MV4-11 xenograft tumor model in mice. To be noted: NOD-SCID mice, 5 mg/kg qd gavage, 14 days. The source says:
EXAMPLE 11 In Vivo Efficacy Test of the Compound of the Present Application
Objective: To test the inhibitory effect of the test compound on the growth of xenograft tumor in nude mice with MV4-11 leukemia.
Method: NOD-SCID mice were subcutaneously inoculated with MV4-11 cells to establish an MV4-11 xenograft tumor model in mice. 16 days after inoculation (d16), average tumor volume was about 210 mm^3. According to the tumor volumes, the tumor-bearing mice were grouped in a random block method, with 6 mice in each group. The groups included a solvent control group, an ABBV-744 control group, and a test sample group, the dosage was 5 mg/kg mouse body weight, and the dose volume was 10 mL/kg mouse body weight, once a day. Each group was gavage administered for 14 consecutive days, and the solvent control group was gavage administered with a blank solvent (20% […] solution). Tumor volumes were measured twice weekly after administration of the test drug. The animals were euthanized after the test.

In a further series the target is T1, hERG (Homo sapiens, UniProt Q12809).
T1 construct: expressed in transfected cells; host or cells: HEK293 cells stably expressing hERG
T1 sequence (Q12809 whole entry): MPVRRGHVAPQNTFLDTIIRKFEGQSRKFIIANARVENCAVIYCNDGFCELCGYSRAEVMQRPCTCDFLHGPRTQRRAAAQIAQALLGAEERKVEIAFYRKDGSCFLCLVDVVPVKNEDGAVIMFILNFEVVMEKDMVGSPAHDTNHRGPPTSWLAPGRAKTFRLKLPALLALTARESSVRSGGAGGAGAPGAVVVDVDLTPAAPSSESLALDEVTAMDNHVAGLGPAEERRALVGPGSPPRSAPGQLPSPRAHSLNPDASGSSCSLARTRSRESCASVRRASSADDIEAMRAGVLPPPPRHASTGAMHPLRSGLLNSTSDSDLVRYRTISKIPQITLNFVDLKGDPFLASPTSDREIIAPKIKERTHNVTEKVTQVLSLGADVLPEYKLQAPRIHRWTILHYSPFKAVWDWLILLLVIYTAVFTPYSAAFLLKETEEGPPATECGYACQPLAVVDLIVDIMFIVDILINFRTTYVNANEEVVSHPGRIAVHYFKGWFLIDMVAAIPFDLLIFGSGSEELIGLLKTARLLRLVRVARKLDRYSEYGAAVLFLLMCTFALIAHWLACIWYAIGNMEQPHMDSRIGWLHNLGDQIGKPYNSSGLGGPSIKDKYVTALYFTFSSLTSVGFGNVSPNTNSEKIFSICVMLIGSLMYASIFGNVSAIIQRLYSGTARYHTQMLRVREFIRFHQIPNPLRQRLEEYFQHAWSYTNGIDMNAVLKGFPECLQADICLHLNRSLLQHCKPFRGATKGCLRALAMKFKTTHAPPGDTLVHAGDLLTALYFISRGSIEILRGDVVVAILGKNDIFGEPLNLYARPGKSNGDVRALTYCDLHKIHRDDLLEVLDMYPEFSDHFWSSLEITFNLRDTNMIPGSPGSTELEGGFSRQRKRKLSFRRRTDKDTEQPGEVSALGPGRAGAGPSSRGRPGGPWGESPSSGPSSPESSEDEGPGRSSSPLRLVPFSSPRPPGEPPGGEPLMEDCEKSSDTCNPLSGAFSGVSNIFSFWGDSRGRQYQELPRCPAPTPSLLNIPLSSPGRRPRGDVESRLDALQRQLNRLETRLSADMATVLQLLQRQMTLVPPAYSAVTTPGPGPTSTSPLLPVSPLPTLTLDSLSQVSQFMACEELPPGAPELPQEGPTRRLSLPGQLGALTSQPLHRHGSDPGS
Put plainly: hERG inhibition test, whole-cell patch clamp in HEK293 cells stably expressing the hERG ion channel. It counts as cell-based. The settings on record: human, HEK293 cells stably expressing the hERG ion channel. The method, then: (§1) An hERG current was recorded by the whole-cell patch clamp technique. A suspension of HEK293 cells stably expressing the hERG ion channel was added to a 35 mm culture dish, and the culture dish was put on a stage of an inverted microscope. […] The pulse program was repeated every 15 seconds throughout the whole test. After the current became stable, the administration method of continuous extracellular perfusion from low concentration to high concentration was used, and the perfusion started from low concentration and continued until the drug effect was stable, and then the perfusion of the next concentration was performed.
(§2) After the test, stimulus release and signal acquisition were carried out through PatchMaster software. Graphpad Prism 8.0 was used for further data analysis and curve fitting. Effects of each compound at different concentrations were represented with an inhibition rate of the tail current. Inhibition rate=(peak tail current before administration—peak tail current after administration)/peak tail current before administration x 100%. Half-maximal inhibitory concentration IC50 of the test samples was obtained by the fitting analysis with Hill equation.
For orientation: hERG is a cardiac potassium channel; its block is linked to QT prolongation.

A further series deals with T2, hERG ion channel (Homo sapiens, UniProt Q12809).
T2 construct: expressed in transfected cells; host or cells: HEK293 cells stably expressing hERG
T2 sequence (Q12809 whole entry): as above
The series is described as above. It counts as cell-based. The settings on record: tail current, Hill equation fit. The method, then: as §1, §2

Setting [1] is: read-out: Average hERG inhibition rate.
Setting [2] is: read-out: hERG Inhibition rate, Cell 1.
Where [3] appears, read: read-out: hERG Inhibition rate, Cell 2.

Where two headings read alike, the source gives them in different places.

Broadly, the IC50 is the concentration that gives 50% inhibition. Higher therefore signals weaker potency in that assay. A word on the inhibition: it is the change of the read-out against control, counted positive when it falls.

In turn, `CCNC(=O)c1cc2c(-c3sc(C(C)(C)O)cc3N3CCc4ccccc43)cn(C)c(=O)c2[nH]1` [Compound 1, N-ethyl-4-(5-(2-hydroxypropyl-2-yl)-3-(indolin-1-yl)thiophen-2-yl)-6-methyl-7-oxo-6,7-dihydro-1H-pyrrolo[2,3-c]pyridine-2-carboxamide] displayed a 50% inhibitory concentration (IC50) in the series on MV4-11 cell of 0.00198 µM. The “Relative tumor proliferation rate T/C” value with MV4-11 xenograft tumor worked out at 33.15%. Also, on hERG (setting [1]), the inhibition at 0.37 µM is 3.89%, the inhibition at 1.11 µM was found to be 4.35%, the inhibition at 3.33 µM was determined as 10.1% and the inhibition at 10 µM worked out at 21.6%. In addition, the inhibition at 30 µM on hERG (setting [1]) amounted to 56.3%. Moreover, at hERG (setting [2]), the inhibition at 0.37 µM worked out at 0.98%, the inhibition at 1.11 µM was -0.28%, the inhibition at 3.33 µM was determined as 2.97% and the inhibition at 10 µM amounted to 14.6%. The inhibition at 30 µM at hERG (setting [2]) is 54.3%. Moreover, at hERG (setting [3]), the inhibition at 0.37 µM turned out to be 6.79%, the inhibition at 1.11 µM is 8.97%, the inhibition at 3.33 µM is 17.3% and the inhibition at 10 µM amounted to 28.6%. In addition, the inhibition at 30 µM at hERG (setting [3]) turned out to be 58.3%. The compound also returned an IC50 against hERG ion channel of 26.8 µM.

Values taken from patent US20230357240A1, “NOVEL N-HETEROCYCLIC BET BROMODOMAIN INHIBITOR, AND PREPARATION METHOD THEREOF AND MEDICAL USE THEREOF” (Chengdu Easton Biopharmaceuticals Co., Ltd., priority 2020, published 2023).
